Earlier results, collected in patent publication US20050121026A1, “Method for administration of tiotropium” (priority 2003, published 2005).

Details: bronchodilator, background statement

**Q.** Which “Duration of action (may be active for up to)” value does the source give for C[N+]1(C)[C@@H]2C[C@@H](OC(=O)C(O)(c3cccs3)c3cccs3)C[C@H]1[C@@H]1O[C@@H]12 [tiotropium bromide] here?
**A.** up to 24 hours
